Among the data in US11046699B2, “Pyrazolo-pyrimidin-amino-cycloalkyl compounds and their therapeutic uses” (RAPT THERAPEUTICS, INC., priority 2018, dated 2021) are IC50 values, retold here.

Structures are written as SMILES. pIC50: −log10 of the molar value.

The test addresses GCN2 (Homo sapiens, UniProt Q9P2K8). As to the kind of experiment: GCN2 enzymatic endpoint assay: phosphorylation of GFP-eIF2α measured by TR-FRET (Lanthascreen). The note with it: tested as described in Example 77; compound and/or hydrochloride, dihydrochloride or trifluoroacetic acid salt; read-out: IC 50 Activity. It is filed as biochemical. A digest of the protocol: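 Read-out is the TR-FRET ratio of acceptor signal at 520 nm to terbium donor at 495 nm, rising with antibody binding to phosphorylated GFP-eIF2α. Endpoint format: 2 μM ATP, 80 nM substrate, 90 minutes at room temperature, EDTA stop.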
(In general: In TR-FRET formats the signal depends on donor and acceptor labels being close together.)

Chain of GCN2 (Q9P2K8 whole entry): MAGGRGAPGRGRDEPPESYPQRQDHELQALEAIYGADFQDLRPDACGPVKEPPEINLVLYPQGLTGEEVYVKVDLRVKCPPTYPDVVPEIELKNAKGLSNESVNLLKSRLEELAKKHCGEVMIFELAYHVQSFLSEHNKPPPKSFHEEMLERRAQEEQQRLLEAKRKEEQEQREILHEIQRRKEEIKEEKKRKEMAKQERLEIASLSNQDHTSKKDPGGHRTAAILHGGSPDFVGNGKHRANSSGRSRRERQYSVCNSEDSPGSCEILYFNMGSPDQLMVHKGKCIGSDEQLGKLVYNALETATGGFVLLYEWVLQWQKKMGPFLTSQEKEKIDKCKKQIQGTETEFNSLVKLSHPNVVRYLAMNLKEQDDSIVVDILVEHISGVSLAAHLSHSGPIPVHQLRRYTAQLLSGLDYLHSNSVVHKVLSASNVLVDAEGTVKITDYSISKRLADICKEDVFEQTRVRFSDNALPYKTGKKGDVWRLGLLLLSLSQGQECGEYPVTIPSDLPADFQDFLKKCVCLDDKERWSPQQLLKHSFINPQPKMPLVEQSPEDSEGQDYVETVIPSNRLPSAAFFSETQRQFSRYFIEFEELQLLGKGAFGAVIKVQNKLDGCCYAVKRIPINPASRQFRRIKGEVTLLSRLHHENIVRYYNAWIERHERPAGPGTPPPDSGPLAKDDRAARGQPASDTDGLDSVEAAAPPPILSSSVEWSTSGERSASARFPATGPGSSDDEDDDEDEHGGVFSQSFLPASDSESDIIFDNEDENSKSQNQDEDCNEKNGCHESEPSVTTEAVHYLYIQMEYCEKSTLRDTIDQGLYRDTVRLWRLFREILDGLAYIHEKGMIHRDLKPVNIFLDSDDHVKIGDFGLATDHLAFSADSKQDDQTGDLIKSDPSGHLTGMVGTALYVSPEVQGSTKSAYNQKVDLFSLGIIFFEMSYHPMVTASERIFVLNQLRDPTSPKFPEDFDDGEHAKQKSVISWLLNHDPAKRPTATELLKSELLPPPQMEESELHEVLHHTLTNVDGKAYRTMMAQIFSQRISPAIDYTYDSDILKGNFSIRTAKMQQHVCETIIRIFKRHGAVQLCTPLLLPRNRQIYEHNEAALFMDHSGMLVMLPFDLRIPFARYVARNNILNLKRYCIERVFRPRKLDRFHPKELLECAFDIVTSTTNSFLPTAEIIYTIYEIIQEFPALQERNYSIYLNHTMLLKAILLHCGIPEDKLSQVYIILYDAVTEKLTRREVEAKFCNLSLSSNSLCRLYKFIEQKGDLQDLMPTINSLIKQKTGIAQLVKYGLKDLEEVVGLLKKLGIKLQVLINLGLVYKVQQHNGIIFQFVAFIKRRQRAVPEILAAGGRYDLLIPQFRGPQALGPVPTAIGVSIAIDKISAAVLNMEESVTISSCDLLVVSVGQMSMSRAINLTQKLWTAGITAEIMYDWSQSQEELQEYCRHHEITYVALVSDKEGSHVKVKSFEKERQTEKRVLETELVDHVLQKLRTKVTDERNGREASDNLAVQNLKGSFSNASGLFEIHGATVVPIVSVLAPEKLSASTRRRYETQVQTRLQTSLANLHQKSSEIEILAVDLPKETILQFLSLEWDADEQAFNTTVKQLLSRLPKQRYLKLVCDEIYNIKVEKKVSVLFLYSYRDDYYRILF

As for `COCCNC(=O)[C@@H]1CC[C@@H](Nc2ncc3c(Br)nn(-c4ccc5cnn(C)c5c4)c3n2)C1` [(1R,3R)-3-((3-bromo-1-(1-methyl-1H-indazol-6-yl)-1H-pyrazolo[3,4-d]pyrimidin-6-yl)amino)-N-(2-methoxyethyl)cyclopentane-1-carboxamide], the pIC50 was 6.30 to 6.70.

For the molecule `COCCNC(=O)[C@@H]1CC[C@@H](Nc2ncc3c(Br)nn(-c4ccc5cn[nH]c5c4)c3n2)C1` [(1R,3R)-3-((3-bromo-1-(1H-indazol-6-yl)-1H-pyrazolo[3,4-d]pyrimidin-6-yl)amino)-N-(2-methoxyethyl)cyclopentane-1-carboxamide], the pIC50 was 6.00 to 6.30. With `COCCNC(=O)[C@@H]1CC[C@@H](Nc2ncc3c(Br)nn(-c4ccc5nc(C)ccc5c4)c3n2)C1` [(1R,3R)-3-((3-bromo-1-(2-methylquinolin-6-yl)-1H-pyrazolo[3,4-d]pyrimidin-6-yl)amino)-N-(2-methoxyethyl)cyclopentane-1-carboxamide] the figure was 6.30 to 6.70. With `CNC(=O)[C@@H]1CC[C@@H](Nc2ncc3c(Br)nn(-c4cc(F)c5nc(C)c(F)cc5c4)c3n2)C1` [(1R,3R)-3-((3-bromo-1-(3,8-difluoro-2-methyl-quinolin-6-yl)-1H-pyrazolo[3,4-d]pyrimidin-6-yl)amino)-N-methylcyclopentane-1-carboxamide] the figure was 6.70 to 7.60; with `CNC(=O)[C@@H]1CC[C@@H](Nc2ncc3c(Br)nn(-c4ccc(N5CCOCC5)c(C#N)c4)c3n2)C1` [(1R,3R)-3-((3-bromo-1-(3-cyano-4-morpholinophenyl)-1H-pyrazolo[3,4-d]pyrimidin-6-yl)amino)-N-methylcyclo-pentane-1-carboxamide], 6.00 to 6.30. With `CNC(=O)[C@@H]1CC[C@@H](Nc2ncc3c(Br)nn(-c4ccc5nc(C)c(F)cc5c4)c3n2)C1` [(1R,3R)-3-((3-bromo-1-(3-fluoro-2-methyl-quinolin-6-yl)-1H-pyrazolo[3,4-d]pyrimidin-6-yl)amino)-N-methylcyclopentane-1-carboxamide] the figure was 6.70 to 7.60; with `COCCNC(=O)[C@@H]1CC[C@@H](Nc2ncc3c(Br)nn(-c4ccc5ncc(F)cc5c4)c3n2)C1` [(1R,3R)-3-((3-bromo-1-(3-fluoroquinolin-6-yl)-1H-pyrazolo[3,4-d]pyrimidin-6-yl)amino)-N-(2-methoxyethyl)cyclopentane-1-carboxamide], 6.70 to 7.60; with `Cn1ccnc1-c1ccc(-n2nc(Br)c3cnc(N[C@@H]4CC[C@@H](C(=O)NCCS(C)(=O)=O)C4)nc32)cc1` [(1R,3R)-3-((3-bromo-1-(4-(1-methyl-1H-imidazol-2-yl)phenyl)-1H-pyrazolo[3,4-d]pyrimidin-6-yl)amino)-N-(2-(methyl-sulfonyl)ethyl)cyclopentane-1-carboxamide], 6.00 to 6.30. As for `COCCNC(=O)[C@@H]1CC[C@@H](Nc2ncc3c(Br)nn(-c4ccc(-c5ccncc5)cc4)c3n2)C1` [(1R,3R)-3-((3-bromo-1-(4-(pyridin-4-yl)phenyl)-1H-pyrazolo[3,4-d]pyrimidin-6-yl)amino)-N-(2-methoxyethyl)cyclopentane-1-carboxamide], the pIC50 was 6.00 to 6.30.

Turning to `COCCNC(=O)[C@@H]1CC[C@@H](Nc2ncc3c(Br)nn(-c4ccc5nc(C)cc(Cl)c5c4)c3n2)C1` [(1R,3R)-3-((3-bromo-1-(4-chloro-2-methyl-quinolin-6-yl)-1H-pyrazolo[3,4-d]pyrimidin-6-yl)amino)-N-(2-methoxyethyl)cyclopentane-1-carboxamide], the pIC50 is 6.30 to 6.70. On to `COCCNC(=O)[C@@H]1CC[C@@H](Nc2ncc3c(Br)nn(-c4cncc(OC)c4)c3n2)C1` [(1R,3R)-3-((3-bromo-1-(5-methoxypyridin-3-yl)-1H-pyrazolo[3,4-d]pyrimidin-6-yl)amino)-N-(2-methoxyethyl)cyclopentane-1-carboxamide], for which the pIC50 is 6.00 to 6.30. With `COCCNC(=O)[C@@H]1CC[C@@H](Nc2ncc3c(Br)nn(-c4cnc5ccc(F)cc5c4)c3n2)C1` [(1R,3R)-3-((3-bromo-1-(6-fluoroquinolin-3-yl)-1H-pyrazolo[3,4-d]pyrimidin-6-yl)amino)-N-(2-methoxyethyl)cyclopentane-1-carboxamide] the figure was 6.00 to 6.30.

As to `CS(=O)(=O)CCNC(=O)[C@@H]1CC[C@@H](Nc2ncc3c(Br)nn(-c4cc(C(F)F)c5ncccc5c4)c3n2)C1` [(1R,3R)-3-((3-bromo-1-(8-(difluoromethyl)quinolin-6-yl)-1H-pyrazolo[3,4-d]pyrimidin-6-yl)amino)-N-(2-(methylsulfonyl)ethyl)cyclo-pentane-1-carboxamide], the pIC50 is 6.30 to 6.70. With `COCCNC(=O)[C@@H]1CC[C@@H](Nc2ncc3c(Br)nn(-c4cc(C(F)F)c5ncccc5c4)c3n2)C1` [(1R,3R)-3-((3-bromo-1-(8-(difluoromethyl)quinolin-6-yl)-1H-pyrazolo[3,4-d]pyrimidin-6-yl)amino)-N-(2-methoxyethyl)cyclopentane-1-carboxamide] the figure was 6.70 to 7.60. With `CNC(=O)[C@@H]1CC[C@@H](Nc2ncc3c(Br)nn(-c4cc(C(F)F)c5ncccc5c4)c3n2)C1` [(1R,3R)-3-((3-bromo-1-(8-(difluoromethyl)quinolin-6-yl)-1H-pyrazolo[3,4-d]pyrimidin-6-yl)amino)-N-methylcyclopentane-1-carboxamide] the figure was 6.70 to 7.60; with `CNC(=O)[C@@H]1CC[C@@H](Nc2ncc3c(Br)nn(-c4cc(OC(F)(F)F)c5ncccc5c4)c3n2)C1` [(1R,3R)-3-((3-bromo-1-(8-(trifluoro-methoxy)quinolin-6-yl)-1H-pyrazolo [3,4-d]pyrimidin-6-yl)amino)-N-methylcyclopentane-1-carboxamide], 6.70 to 7.60; with `COCCNC(=O)[C@@H]1CC[C@@H](Nc2ncc3c(Br)nn(-c4cc(C(F)(F)F)c5ncccc5c4)c3n2)C1` [(1R,3R)-3-((3-bromo-1-(8-(trifluoromethyl)quinolin-6-yl)-1H-pyrazolo[3,4-d]pyrimidin-6-yl)amino)-N-(2-methoxyethyl)cyclopentane-1-carboxamide], 6.30 to 6.70.

Turning to `COCCNC(=O)[C@@H]1CC[C@@H](Nc2ncc3c(Br)nn(-c4cc(Cl)c5ncccc5c4)c3n2)C1` [(1R,3R)-3-((3-bromo-1-(8-chloroquinolin-6-yl)-1H-pyrazolo[3,4-d]pyrimidin-6-yl)amino)-N-(2-methoxyethyl)cyclopentane-1-carboxamide], the pIC50 is 6.70 to 7.60. With `O=C(N[C@@H]1CCOC1)[C@@H]1CC[C@@H](Nc2ncc3c(Br)nn(-c4cc(Cl)c5ncccc5c4)c3n2)C1` [(1R,3R)-3-((3-bromo-1-(8-chloroquinolin-6-yl)-1H-pyrazolo[3,4-d]pyrimidin-6-yl)amino)-N-((R)-tetrahydrofuran-3-yl)cyclopentane-1-carboxamide] the figure was above 7.60; with `N#Cc1cc(-n2nc(Br)c3cnc(N[C@@H]4CC[C@@H](C(=O)NC5CCS(=O)(=O)CC5)C4)nc32)cc2cccnc12` [(1R,3R)-3-((3-bromo-1-(8-cyanoquinolin-6-yl)-1H-pyrazolo[3,4-d]pyrimidin-6-yl)amino)-N-(1,1-dioxidotetrahydro-2H-thiopyran-4-yl)cyclopentane-1-carboxamide], 6.70 to 7.60. With `CC(F)(F)CNC(=O)[C@@H]1CC[C@@H](Nc2ncc3c(Br)nn(-c4cc(C#N)c5ncccc5c4)c3n2)C1` [(1R,3R)-3-((3-bromo-1-(8-cyanoquinolin-6-yl)-1H-pyrazolo[3,4-d]pyrimidin-6-yl)amino)-N-(2,2-difluoropropyl)cyclopentane-1-carboxamide] the figure was 6.70 to 7.60; with `N#Cc1cc(-n2nc(Br)c3cnc(N[C@@H]4CC[C@@H](C(=O)N[C@@H]5CNC[C@@H]5F)C4)nc32)cc2cccnc12` [(1R,3R)-3-((3-bromo-1-(8-cyanoquinolin-6-yl)-1H-pyrazolo[3,4-d]pyrimidin-6-yl)amino)-N-((3R,4S)-4-fluoropyrrolidin-3-yl)cyclo-pentane-1-carboxamide], above 7.60; with `N#Cc1cc(-n2nc(Br)c3cnc(N[C@@H]4CC[C@@H](C(=O)NC[C@@H]5COCCN5)C4)nc32)cc2cccnc12` [(1R,3R)-3-((3-bromo-1-(8-cyanoquinolin-6-yl)-1H-pyrazolo[3,4-d]pyrimidin-6-yl)amino)-N-(((R)-morpholin-3-yl)methyl)cyclopentane-1-carboxamide], above 7.60. With `N#Cc1cc(-n2nc(Br)c3cnc(N[C@@H]4CC[C@@H](C(=O)NC[C@H]5COCCN5)C4)nc32)cc2cccnc12` [(1R,3R)-3-((3-bromo-1-(8-cyanoquinolin-6-yl)-1H-pyrazolo[3,4-d]pyrimidin-6-yl)amino)-N-(((S)-morpholin-3-yl)methyl)cyclopentane-1-carboxamide] the figure was above 7.60; with `N#Cc1cc(-n2nc(Br)c3cnc(N[C@@H]4CC[C@@H](C(=O)N[C@@H]5CCNC5)C4)nc32)cc2cccnc12` [(1R,3R)-3-((3-bromo-1-(8-cyanoquinolin-6-yl)-1H-pyrazolo[3,4-d]pyrimidin-6-yl)amino)-N-((R)-pyrrolidin-3-yl)cyclopentane-1-carboxamide], above 7.60. As to `N#Cc1cc(-n2nc(Br)c3cnc(N[C@@H]4CC[C@@H](C(=O)N[C@H]5CCNC5)C4)nc32)cc2cccnc12` [(1R,3R)-3-((3-bromo-1-(8-cyanoquinolin-6-yl)-1H-pyrazolo[3,4-d]pyrimidin-6-yl)amino)-N-((S)-pyrrolidin-3-yl)cyclopentane-1-carboxamide], the pIC50 was above 7.60. On to `N#Cc1cc(-n2nc(Br)c3cnc(N[C@@H]4CC[C@@H](C(=O)NCC5CC5)C4)nc32)cc2cccnc12` [(1R,3R)-3-((3-bromo-1-(8-cyanoquinolin-6-yl)-1H-pyrazolo[3,4-d]pyrimidin-6-yl)amino)-N-(cyclopropylmethyl)cyclo-pentane-1-carboxamide], for which the pIC50 was 6.70 to 7.60.

Regarding `CCCCNC(=O)[C@@H]1CC[C@@H](Nc2ncc3c(Br)nn(-c4cc(C#N)c5ncccc5c4)c3n2)C1` [(1R,3R)-3-((3-bromo-1-(8-cyanoquinolin-6-yl)-1H-pyrazolo[3,4-d]pyrimidin-6-yl)amino)-N-butylcyclopentane-1-carboxamide], the pIC50 was 6.30 to 6.70.
